Tests used:
human CD4+ T cells = assay: Human CD4+ T-cell proliferation assay (CFSE, CD3/28 beads); conditions: read-out: Proliferation IC50
[1] = molecular target: T1, MTHFD2 recombinant human enzyme (Homo sapiens, UniProt P13995); assay: MTHFD2 inhibition assay (NAD(P)H-Glo luminescence); conditions: for MTHFD1/MTHFD2 IC50 ratio: selectivity of MTHFD2 inhibition over MTHFD1, band
T1 sequence (P13995 36-350): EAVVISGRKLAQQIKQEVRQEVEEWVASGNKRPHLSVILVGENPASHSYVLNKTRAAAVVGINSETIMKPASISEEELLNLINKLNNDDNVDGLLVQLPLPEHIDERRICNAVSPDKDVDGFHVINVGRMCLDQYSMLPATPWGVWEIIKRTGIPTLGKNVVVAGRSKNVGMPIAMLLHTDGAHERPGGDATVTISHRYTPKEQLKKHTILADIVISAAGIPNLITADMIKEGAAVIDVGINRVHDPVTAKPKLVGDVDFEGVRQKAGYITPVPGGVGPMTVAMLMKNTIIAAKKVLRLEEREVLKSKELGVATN

[2] = molecular target: T2, MTHFD1 recombinant human enzyme (Homo sapiens, UniProt P11586); assay: MTHFD1 inhibition assay (NAD(P)H-Glo luminescence); conditions: MTHFD1 IC50, recombinant human enzyme 200 nM, NADP, band
T2 sequence (P11586 2-291 limits assumed): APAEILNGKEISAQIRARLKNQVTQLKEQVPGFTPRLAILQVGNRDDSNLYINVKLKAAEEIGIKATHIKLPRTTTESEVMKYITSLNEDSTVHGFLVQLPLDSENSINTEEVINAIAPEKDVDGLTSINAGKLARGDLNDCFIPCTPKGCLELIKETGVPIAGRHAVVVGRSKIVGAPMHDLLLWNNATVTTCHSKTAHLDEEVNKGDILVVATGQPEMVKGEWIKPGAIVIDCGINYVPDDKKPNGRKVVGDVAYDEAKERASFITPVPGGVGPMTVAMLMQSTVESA

COC[C@H]1CN(c2cc(C)c3c4c(c(=O)oc3c2C)CN(C(=O)c2ccc(C(=O)NS(=O)(=O)C3(C)CC3)c(N(C)C)c2F)CC4)CCN1C [Example 136, (R)-2-(dimethylamino)-3-fluoro-4-(8-(3-(methoxymethyl)-4-methylpiperazin-1-yl)-7,10-dimethyl-5-oxo-1,3,4,5-tetrahydro-2H-chromeno[3,4-c]pyridine-3-carbonyl)-N-((1-methylcyclopropyl)sulfonyl)benzamide]
IC50 (human CD4+ T cells): 30 to 100 nM | IC50 [1]: 10 to 100 nM | MTHFD1/MTHFD2 IC50 ratio [1]: H (>9.0 to 30) | IC50 [2]: 100 to 1000 nM

[2H]C([2H])([2H])Oc1cc(C(=O)N2CCc3c(c(=O)oc4c(C)c(N5CCN(C)[C@@H](COC)C5)cc(C)c34)C2)c(F)cc1C(=O)NS(=O)(=O)N1CCCC1 [Example 225, (R)-5-fluoro-2-(methoxy-d3)-4-(8-(3-(methoxymethyl)-4-methylpiperazin-1-yl)-7,10-dimethyl-5-oxo-1,3,4,5-tetrahydro-2H-chromeno[3,4-c]pyridine-3-carbonyl)-N-(pyrrolidin-1-ylsulfonyl)benzamide]
IC50 (human CD4+ T cells): 30 to 100 nM | IC50 [1]: 1 to 10 nM | MTHFD1/MTHFD2 IC50 ratio [1]: J (>30) | IC50 [2]: 100 to 1000 nM

COC[C@H]1CN(c2cc(C)c3c4c(c(=O)oc3c2C)CN(C(=O)c2ccc(C(=O)NS(=O)(=O)N3CCCC3)c(OC(C)C)c2F)CC4)CCN1C [Example 149, (R)-3-fluoro-2-isopropoxy-4-(8-(3-(methoxymethyl)-4-methylpiperazin-1-yl)-7,10-dimethyl-5-oxo-1,3,4,5-tetrahydro-2H-chromeno[3,4-c]pyridine-3-carbonyl)-N-(pyrrolidin-1-ylsulfonyl)benzamide]
IC50 (human CD4+ T cells): 1 to 10 nM | IC50 [1]: 1 to 10 nM | MTHFD1/MTHFD2 IC50 ratio [1]: F (<3) | IC50 [2]: 10 to 100 nM

COC[C@H]1CN(c2cc(C)c3c4c(c(=O)oc3c2C)CN(C(=O)c2cc(OC)c(C(=O)NS(=O)(=O)N3CC5CC5C3)cc2F)CC4)CCN1C (stereo partly drawn) [Example 249, N-((3-azabicyclo[3.1.0]hexan-3-yl)sulfonyl)-5-fluoro-2-methoxy-4-(8-((R)-3-(methoxymethyl)-4-methylpiperazin-1-yl)-7,10-dimethyl-5-oxo-1,3,4,5-tetrahydro-2H-chromeno[3,4-c]pyridine-3-carbonyl)benzamide]
IC50 (human CD4+ T cells): 30 to 100 nM | IC50 [1]: 1 to 10 nM | MTHFD1/MTHFD2 IC50 ratio [1]: J (>30) | IC50 [2]: 100 to 1000 nM

COC[C@H]1CN(c2ccc3c4c(c(=O)oc3c2C)CN(C(=O)c2ccc(C(=O)NS(=O)(=O)N(C)C)c(OC3CCC3)c2F)CC4)CCN1C [Example 50, (R)-2-cyclobutoxy-N-(N,N-dimethylsulfamoyl)-3-fluoro-4-(8-(3-(methoxymethyl)-4-methylpiperazin-1-yl)-7-methyl-5-oxo-1,3,4,5-tetrahydro-2H-chromeno[3,4-c]pyridine-3-carbonyl)benzamide]
IC50 (human CD4+ T cells): 1 to 10 nM | IC50 [1]: 1 to 10 nM | MTHFD1/MTHFD2 IC50 ratio [1]: F (<3) | IC50 [2]: 1 to 10 nM

[2H]C([2H])([2H])Oc1cc(C(=O)N2CCc3c(c(=O)oc4c(C)c(N5CCN(C)[C@@H](COC)C5)cc(C)c34)C2)c(F)cc1C(=O)NS(=O)(=O)N1CC2CC2C1 (stereo partly drawn) [Example 251, N-((3-azabicyclo[3.1.0]hexan-3-yl)sulfonyl)-5-fluoro-2-(methoxy-d3)-4-(8-((R)-3-(methoxymethyl)-4-methylpiperazin-1-yl)-7,10-dimethyl-5-oxo-1,3,4,5-tetrahydro-2H-chromeno[3,4-c]pyridine-3-carbonyl)benzamide]
IC50 (human CD4+ T cells): 30 to 100 nM | IC50 [1]: 1 to 10 nM | MTHFD1/MTHFD2 IC50 ratio [1]: J (>30) | IC50 [2]: 100 to 1000 nM

COC[C@H]1CN(c2cc(C)c3c4c(c(=O)oc3c2C)CN(C(=O)c2cc(N(C)C)c(C(=O)NS(=O)(=O)N3CC[C@H](F)C3)cc2F)CC4)CCN1C [Example 254, 2-(dimethylamino)-5-fluoro-N-(((S)-3-fluoropyrrolidin-1-yl)sulfonyl)-4-(8-((R)-3-(methoxymethyl)-4-methylpiperazin-1-yl)-7,10-dimethyl-5-oxo-1,3,4,5-tetrahydro-2H-chromeno[3,4-c]pyridine-3-carbonyl)benzamide]
IC50 (human CD4+ T cells): 10 to 30 nM | IC50 [1]: 1 to 10 nM | MTHFD1/MTHFD2 IC50 ratio [1]: J (>30) | IC50 [2]: 100 to 1000 nM

COC[C@H]1CN(c2cc(C)c3c4c(c(=O)oc3c2C)CN(C(=O)c2ccc(C(=O)NS(=O)(=O)N3CCCC3)c(OC)c2F)CC4)CCN1C [Example 135, (R)-3-fluoro-2-methoxy-4-(8-(3-(methoxymethyl)-4-methylpiperazin-1-yl)-7,10-dimethyl-5-oxo-1,3,4,5-tetrahydro-2H-chromeno[3,4-c]pyridine-3-carbonyl)-N-(pyrrolidin-1-ylsulfonyl)benzamide]
IC50 (human CD4+ T cells): 10 to 30 nM | IC50 [1]: 1 to 10 nM | MTHFD1/MTHFD2 IC50 ratio [1]: G (^ 3 to 9.0) | IC50 [2]: 10 to 100 nM

COC[C@H]1CN(c2cc(Cl)c3c4c(c(=O)oc3c2C)CN(C(=O)c2cc(OC)c(C(=O)NS(=O)(=O)N3CCCC3)cc2F)CC4)CCN1C [Example 262, (R)-4-(10-chloro-8-(3-(methoxymethyl)-4-methylpiperazin-1-yl)-7-methyl-5-oxo-1,3,4,5-tetrahydro-2H-chromeno[3,4-c]pyridine-3-carbonyl)-5-fluoro-2-methoxy-N-(pyrrolidin-1-ylsulfonyl)benzamide]
IC50 (human CD4+ T cells): 30 to 100 nM | IC50 [1]: 1 to 10 nM | MTHFD1/MTHFD2 IC50 ratio [1]: J (>30) | IC50 [2]: 1000 to 5000 nM

COC[C@H]1CN(c2cc(F)c3c4c(c(=O)oc3c2C)CN(C(=O)c2cc(N(C)C)c(C(=O)NS(=O)(=O)N3C5CCC3CC5)cc2F)CC4)CCN1C [Example 304, (R)-N-((7-azabicyclo[2.2.1]heptan-7-yl)sulfonyl)-2-(dimethylamino)-5-fluoro-4-(10-fluoro-8-(3-(methoxymethyl)-4-methylpiperazin-1-yl)-7-methyl-5-oxo-1,3,4,5-tetrahydro-2H-chromeno[3,4-c]pyridine-3-carbonyl)benzamide]
IC50 (human CD4+ T cells): 10 to 30 nM | IC50 [1]: 10 to 100 nM | IC50 [2]: 1000 to 5000 nM

CCOc1cc(C(=O)N2CCc3c(c(=O)oc4c(C)c(N5CCN(C)[C@@H](COC)C5)cc(C)c34)C2)c(Cl)cc1C(=O)NS(=O)(=O)N1CCCC1 [Example 330, (R)-5-chloro-2-ethoxy-4-(8-(3-(methoxymethyl)-4-methylpiperazin-1-yl)-7,10-dimethyl-5-oxo-1,3,4,5-tetrahydro-2H-chromeno[3,4-c]pyridine-3-carbonyl)-N-(pyrrolidin-1-ylsulfonyl)benzamide]
IC50 (human CD4+ T cells): 100 to 1000 nM | IC50 [1]: 10 to 100 nM | MTHFD1/MTHFD2 IC50 ratio [1]: J (>30) | IC50 [2]: 100 to 1000 nM

COC[C@H]1CN(c2cc(C)c3c4c(c(=O)oc3c2C)CN(C(=O)c2ccc(C(=O)NS(=O)(=O)N3CCCC3)c(N3CCCC3)c2F)CC4)CCN1C [Example 98, (R)-3-fluoro-4-(8-(3-(methoxymethyl)-4-methylpiperazin-1-yl)-7,10-dimethyl-5-oxo-1,3,4,5-tetrahydro-2H-chromeno[3,4-c]pyridine-3-carbonyl)-2-(pyrrolidin-1-yl)-N-(pyrrolidin-1-ylsulfonyl)benzamide]
IC50 (human CD4+ T cells): 10 to 30 nM | IC50 [1]: 1 to 10 nM | MTHFD1/MTHFD2 IC50 ratio [1]: F (<3) | IC50 [2]: 10 to 100 nM

[2H]C([2H])([2H])Oc1cc(C(=O)N2CCc3c(c(=O)oc4c(C)c(N5CCN(C)[C@@H](COC)C5)cc(Cl)c34)C2)c(F)cc1C(=O)NS(=O)(=O)N1C2CCC1CC2 [Example 326, (R)-N-((7-azabicyclo[2.2.1]heptan-7-yl)sulfonyl)-4-(10-chloro-8-(3-(methoxymethyl)-4-methylpiperazin-1-yl)-7-methyl-5-oxo-1,3,4,5-tetrahydro-2H-chromeno[3,4-c]pyridine-3-carbonyl)-5-fluoro-2-(methoxy-d3)benzamide]
IC50 (human CD4+ T cells): 100 to 1000 nM | IC50 [1]: 1 to 10 nM | MTHFD1/MTHFD2 IC50 ratio [1]: J (>30) | IC50 [2]: 1000 to 5000 nM

COC[C@H]1CN(c2cc(C)c3c4c(c(=O)oc3c2C)CN(C(=O)c2cc(N(C)C)c(C(=O)NS(=O)(=O)N3CC5(CCC5)C3)cc2F)CC4)CCN1C [Example 253, (R)-N-((2-azaspiro[3.3]heptan-2-yl)sulfonyl)-2-(dimethylamino)-5-fluoro-4-(8-(3-(methoxymethyl)-4-methylpiperazin-1-yl)-7,10-dimethyl-5-oxo-1,3,4,5-tetrahydro-2H-chromeno[3,4-c]pyridine-3-carbonyl)benzamide]
IC50 (human CD4+ T cells): 10 to 30 nM | IC50 [1]: 1 to 10 nM | MTHFD1/MTHFD2 IC50 ratio [1]: J (>30) | IC50 [2]: 100 to 1000 nM

[2H]C([2H])([2H])Oc1cc(C(=O)N2CCc3c(c(=O)oc4c(C)c(N5CCN(C)[C@@H](COC)C5)cc(Cl)c34)C2)c(F)cc1C(=O)NS(=O)(=O)N1CCCC1 [Example 246, (R)-4-(10-chloro-8-(3-(methoxymethyl)-4-methylpiperazin-1-yl)-7-methyl-5-oxo-1,3,4,5-tetrahydro-2H-chromeno[3,4-c]pyridine-3-carbonyl)-5-fluoro-2-(methoxy-d3)-N-(pyrrolidin-1-ylsulfonyl)benzamide]
IC50 (human CD4+ T cells): 100 to 1000 nM | IC50 [1]: 1 to 10 nM | MTHFD1/MTHFD2 IC50 ratio [1]: J (>30) | IC50 [2]: 100 to 1000 nM

From patent publication US12662489B2 (Sitryx Therapeutics Limited, priority 2023, dated 2026)
